Laboratory results: patent US20250042879A1, “HETEROCYCLIC SUBSTITUTED 1,3,4-THIADIAZOLE AND PYRIDAZINE COMPOUNDS AND METHODS OF USING THE SAME” (Rgenta Therapeutics, Inc., priority 2021, published 2025)
Where a name gives a salt, the structure may show the parent alone.

The compounds below were run on HTT (assay: Mini-gene reporter assay-HTT (firefly luciferase, exon inclusion)). Details: HTT Minigene, 5 μM; read-out: % Efficacy at 5 μM.
Format: cell-based
Description: Mini-gene reporter constructs for each target site were constructed by first PCR amplifying the region-of-interest including the sequence of the alternatively skipped, sequences of the immediate upstream and downstream introns, and sequences of the immediate upstream and downstream exons. Then the 3′end of the amplified sequence was ligated to a firefly luciferase reporter gene and cloned into the pcDNA3.1 vector backbone. The final reporter construct was transiently transfected into HEK293 cells using Lipofectamine 3000 transfection reagents. Compounds that can induce the inclusion of the skipped exon in the reporter construct would increase the reporter firefly luciferase activity.
Test compounds were diluted in duplicates and dispensed into an assay plate. Transient mini-gene reporter cell line stock was resuspended and dispensed into the assay plate. Assay plates were then centrifuged and incubated. A luciferase reagent (e.g. ONE-Glo firefly luciferase reagent from Promega®) was added to the assay plate and the luminescence (RLU) signals recorded. EC50 values were determined by curve fitting in Levenberg-Marquardt algorithm.
`CCn1cc(CN2CC(c3ccc(-c4ccc(-c5cc(F)c6nc(C)cn6c5)cc4O)nn3)C2)nn1` [Compound 123] was tested, and the Emax at 5 µM was 25 to 75%.
`CCn1cnc(CN2CC(c3ccc(-c4ccc(-c5cc(F)c6nc(C)cn6c5)cc4O)nn3)C2)c1` [Compound 125] gave an Emax at 5 µM of 25 to 75%.
In the case of `Cc1cn2cc(-c3ccc(-c4ccc(C5CN(Cc6c[nH]nc6C)C5)nn4)c(O)c3)cc(F)c2n1` [Compound 73], the Emax at 5 µM is reported as > 750%.
For `Cc1cn2cc(-c3ccc(-c4ccc(C5CN(Cc6cc(C)n(C)n6)C5)nn4)c(O)c3)cc(F)c2n1` [Compound 96], the Emax at 5 µM was < 25%.
In the case of `COc1cc(-c2ccc(-c3ccc(C4CN(Cc5ocnc5C)C4)nn3)c(O)c2)cc2cn(C)nc12` [Compound 170], the Emax at 5 µM is reported as < 25%.
In the case of `Cc1cn2cc(-c3ccc(-c4ccc(C5CN(Cc6cncnc6)C5)nn4)c(O)c3)cc(F)c2n1` [Compound 82], the Emax at 5 µM is reported as 25 to 75%.
Compound `Cc1cn2cc(-c3ccc(-c4ccc(C5CN(C6CCN(C)CC6)C5)nn4)c(O)c3)cc(F)c2n1` [Compound 75] has an Emax at 5 µM of 25 to 75%.
For `COCC(C)N1CC(c2ccc(-c3ccc(-c4cc(F)c5nc(C)cn5c4)cc3O)nn2)C1` (stereo not drawn) [Compound 84], the Emax at 5 µM was > 750%.
With `COc1cc(-c2ccc(-c3ccc(C4CN(C(C)C5CCC5)C4)nn3)c(O)c2)cc2cn(C)nc12` (stereo not drawn) [Compound 157] the Emax at 5 µM was > 750%.
Compound `Cc1cn2cc(-c3ccc(-c4ccc(C5CN(C6CCOC7(CCC7)C6)C5)nn4)c(O)c3)cc(F)c2n1` (stereo not drawn) [Compound 113] has an Emax at 5 µM of 25 to 75%.
In the case of `CCCC(CN1CC(c2ccc(-c3ccc(-c4cc(OC)c5nn(C)cc5c4)cc3O)nn2)C1)OC` (stereo not drawn) [Compound 176], the Emax at 5 µM is reported as 25 to 75%.
In the case of `Cc1cn2cc(-c3ccc(-c4ccc(C5CN(C6CCOC6)C5)nn4)c(O)c3)cc(F)c2n1` (stereo not drawn) [Compound 89], the Emax at 5 µM is reported as > 750%.
For `Cc1cn2cc(-c3ccc(-c4ccc(C5CN(Cc6cnn(CCF)c6)C5)nn4)c(O)c3)cc(F)c2n1` [Compound 102], the Emax at 5 µM was > 750%.
`Cc1cn2cc(-c3ccc(-c4ccc(C5CN(C(C)Cc6cnccn6)C5)nn4)c(O)c3)cc(F)c2n1` (stereo not drawn) [Compound 115] gave an Emax at 5 µM of 25 to 75%.
`COc1cc(-c2ccc(-c3ccc(C4CN(C5CCCSC5)C4)nn3)c(O)c2)cc2cn(C)nc12` (stereo not drawn) [Compound 142] was tested, and the Emax at 5 µM was 25 to 75%.
With `COc1cc(-c2ccc(-c3ccc(C4CN(Cc5cn(C(C)C)cn5)C4)nn3)c(O)c2)cc2cn(C)nc12` [Compound 191] the Emax at 5 µM was 25 to 75%.
For `COc1cc(-c2ccc(-c3ccc(C4CN(Cc5ccn(C(C)C)n5)C4)nn3)c(O)c2)cc2cn(C)nc12` [Compound 189], the Emax at 5 µM was < 25%.
`COc1cc(-c2ccc(-c3ccc(C4CN(Cc5cnsc5)C4)nn3)c(O)c2)cc2cn(C)nc12` [Compound 182] showed an Emax at 5 µM of 25 to 75%.
With `COc1cc(-c2ccc(-c3ccc(C4CN(Cc5cncs5)C4)nn3)c(O)c2)cc2cn(C)nc12` [Compound 141] the Emax at 5 µM was 25 to 75%.
For `COc1cc(-c2ccc(-c3ccc(C4CN(CC5CCSCC5)C4)nn3)c(O)c2)cc2cn(C)nc12` [Compound 167], the Emax at 5 µM was 25 to 75%.
In the case of `COc1cc(-c2ccc(-c3ccc(C4CN(Cc5ccc(O)nc5)C4)nn3)c(O)c2)cc2cn(C)nc12` [Compound 159], the Emax at 5 µM is reported as 25 to 75%.
With `Cc1cn2cc(-c3ccc(-c4ccc(C5CN(Cc6ccn(C)c6)C5)nn4)c(O)c3)cc(F)c2n1` [Compound 94] the Emax at 5 µM was 25 to 75%.
`COc1cc(-c2ccc(-c3ccc(C4CN(CC5C6CCCCC65)C4)nn3)c(O)c2)cc2cn(C)nc12` (stereo not drawn) [Compound 190] was tested, and the Emax at 5 µM was 25 to 75%.
In the case of `Cc1cn2cc(-c3ccc(-c4ccc(C5CN(Cc6cc[nH]c6)C5)nn4)c(O)c3)cc(F)c2n1` [Compound 98], the Emax at 5 µM is reported as > 750%.
`COc1cc(-c2ccc(-c3ccc(C4CN(Cc5ccccn5)C4)nn3)c(O)c2)cc2cn(C)nc12` [Compound 129] was tested, and the Emax at 5 µM was < 25%.
With `COc1cc(-c2ccc(-c3ccc(C4CN(Cc5c(C)nn(C)c5C)C4)nn3)c(O)c2)cc2cn(C)nc12` [Compound 133] the Emax at 5 µM was < 25%.

Same assay, conditions: Homo sapiens; HTT mini-gene firefly luciferase reporter transiently transfected into HEK293 cells
Compound `Cn1cc2cc(-c3ccc(-c4ccc(C5CNC5)nn4)c(O)c3)ccc2n1` [Compound 16, 2-[6-(azetidin-3-yl)pyridazin-3-yl]-5-(2-methyl-2H-indazol-5-yl)phenol] has an EC50 of 50 to 500 nM.
For `CCN1CC(c2ccc(-c3ccc(-c4cc(C)c5nn(C)cc5c4)cc3O)nn2)C1` [Compound 34, 5-(2,7-dimethyl-2H-indazol-5-yl)-2-[6-(1-ethylazetidin-3-yl)pyridazin-3-yl]phenol], the EC50 was 50 to 500 nM.
In the case of `Cc1cn2cc(-c3ccc(-c4ccc(C5CNC5)nn4)c(O)c3)cc(F)c2n1` [Compound 1, 2-(6-(azetidin-3-yl)pyridazin-3-yl)-5-(8-fluoro-2-methylimidazo[1,2-a]pyridin-6-yl)phenol], the EC50 is reported as 50 to 500 nM.
In the case of `COc1nc(-c2ccc(-c3ccc(C4CN(C5CCOCC5)C4)nn3)c(O)c2)cc2cn(C)nc12` [Compound 58, 5-{7-methoxy-2-methyl-2H-pyrazolo[3,4-c]pyridin-5-yl}-2-{6-[1-(oxan-4-yl)azetidin-3-yl]pyridazin-3-yl}phenol], the EC50 is reported as 50 to 500 nM.
With `Cc1cn2nc(-c3ccc(-c4ccc(C5CNC5)nn4)c(O)c3)cc(C)c2n1` [Compound 3, 2-[6-(azetidin-3-yl)pyridazin-3-yl]-5-{2,8-dimethylimidazo[1,2-b]pyridazin-6-yl}phenol] the EC50 was 50 to 500 nM.
`CCN1CC(c2ccc(-c3ccc(-c4cc5cn(C)nc5c(OC)n4)cc3O)nn2)C1` [Compound 52, 2-[6-(1-ethylazetidin-3-yl)pyridazin-3-yl]-5-{7-methoxy-2-methyl-2H-pyrazolo[3,4-c]pyridin-5-yl}phenol] showed an EC50 of 50 to 500 nM.
For `COc1cc(-c2ccc(-c3ccc(C4CN(C5CCOCC5)C4)nn3)c(O)c2)nc2cn(C)nc12` [Compound 65, 5-(7-methoxy-2-methyl-2H-pyrazolo[4,3-b]pyridin-5-yl)-2-(6-(1-(tetrahydro-2H-pyran-4-yl)azetidin-3-yl)pyridazin-3-yl)phenol hydrochloride], the EC50 was ≥ 1000 nM.
In the case of `CCc1cc(-c2ccc(-c3ccc(C4CN(CC)C4)nn3)c(O)c2)nc2cn(C)nc12` [Compound 60, 5-{7-ethyl-2-methyl-2H-pyrazolo[4,3-b]pyridin-5-yl}-2-[6-(1-ethylazetidin-3-yl)pyridazin-3-yl]phenol], the EC50 is reported as ≥ 1000 nM.
In the case of `COc1nc(-c2ccc(-c3ccc(C4CN(C(C)C)C4)nn3)c(O)c2)cc2cn(C)nc12` [Compound 57, 5-{7-methoxy-2-methyl-2H-pyrazolo[3,4-c]pyridin-5-yl}-2-{6-[1-(propan-2-yl)azetidin-3-yl]pyridazin-3-yl}phenol], the EC50 is reported as 50 to 500 nM.
Work on `Cc1cn2nc(-c3ccc(-c4ccc(C5CN(C6CCOCC6)C5)nn4)c(O)c3)cc(C)c2n1` [Compound 64, 5-(2,8-dimethylimidazo[1,2-b]pyridazin-6-yl)-2-(6-(1-(tetrahydro-2H-pyran-4-yl)azetidin-3-yl)pyridazin-3-yl)phenol hydrochloride] yielded an EC50 of 500 to 1000 nM.
`Cn1cc2nc(-c3ccc(-c4ccc(C5CN(C6CCOCC6)C5)nn4)c(O)c3)ccc2n1` [Compound 51, 5-{2-methyl-2H-pyrazolo[4,3-b]pyridin-5-yl}-2-{6-[1-(oxan-4-yl)azetidin-3-yl]pyridazin-3-yl}phenol] gave an EC50 of 500 to 1000 nM.
With `Cc1cn2cc(-c3ccc(-c4ccc(C5CNC5)nn4)c(O)c3F)cc(F)c2n1` [Compound 10, 6-[6-(azetidin-3-yl)pyridazin-3-yl]-2-fluoro-3-{8-fluoro-2-methylimidazo[1,2-a]pyridin-6-yl}phenol] the EC50 was < 50 nM.
`CCN1CC(c2ccc(-c3ccc(-c4ccc5nccn5n4)cc3O)nn2)C1` [Compound 47, 2-[6-(1-ethylazetidin-3-yl)pyridazin-3-yl]-5-{imidazo[1,2-b]pyridazin-6-yl}phenol] was tested, and the EC50 was 500 to 1000 nM.
